Test results from the NIST ThermoML archive (doi:10.1021/acs.jced.7b00026).
± gives the expanded uncertainty stated by the source.

Legend:
[1] = Boiling temperature at pressure P; conditions: Liquid, Ebulliometric method (Recirculating still)
[2] = Liquid; for mass density: 293.15 K, 101.33 kPa, Vibrating tube method
[3] = refractive index (Na D-line) (dimensionless); conditions: 293.15 K; 101.33 kPa; Liquid; Standard Abbe refractometry

CC(=O)CC(C)C [4-methylpentan-2-one]
Boiling temperature at pressure P ([1]; 9.22 kPa): 49.67 ± 0.38 °C
Boiling temperature at pressure P ([1]; 9.9 kPa): 51.26 ± 0.38 °C
Boiling temperature at pressure P ([1]; 17.52 kPa): 64.70 ± 0.27 °C
Boiling temperature at pressure P ([1]; 18.41 kPa): 65.96 ± 0.27 °C
Boiling temperature at pressure P ([1]; 31.36 kPa): 79.73 ± 0.22 °C
Boiling temperature at pressure P ([1]; 32.13 kPa): 80.39 ± 0.22 °C
Boiling temperature at pressure P ([1]; 39.89 kPa): 86.5 ± 0.2 °C
Boiling temperature at pressure P ([1]; 53.99 kPa): 95.31 ± 0.2 °C
Boiling temperature at pressure P ([1]; 69.89 kPa): 103.21 ± 0.19 °C
mass density [2]: 800.3 ± 1 kg/m3
vapor or sublimation pressure ([2]; 323.15 K, Ebullio): 9.22 ± 0.72 kPa
vapor or sublimation pressure ([2]; 338.15 K, Ebullio): 17.57 ± 1.4 kPa
vapor or sublimation pressure ([2]; 353.15 K, Ebullio): 31.41 ± 2.4 kPa
vapor or sublimation pressure ([2]; 368.15 K, Ebullio): 54.04 ± 4.2 kPa
refractive index [3]: 1.39586 ± 0.00085

CCCO [propan-1-ol]
Boiling temperature at pressure P ([1]; 14.9 kPa): 53.83 ± 0.23 °C
Boiling temperature at pressure P ([1]; 25.89 kPa): 64.94 ± 0.23 °C
Boiling temperature at pressure P ([1]; 29.9 kPa): 67.97 ± 0.2 °C
Boiling temperature at pressure P ([1]; 39.89 kPa): 74.30 ± 0.2 °C
Boiling temperature at pressure P ([1]; 51.21 kPa): 79.99 ± 0.19 °C
Boiling temperature at pressure P ([1]; 59.89 kPa): 83.71 ± 0.19 °C
Boiling temperature at pressure P ([1]; 69.89 kPa): 87.44 ± 0.19 °C
Boiling temperature at pressure P ([1]; 79.88 kPa): 90.76 ± 0.19 °C
Boiling temperature at pressure P ([1]; 93.89 kPa): 94.87 ± 0.19 °C
Boiling temperature at pressure P ([1]; 99.88 kPa): 96.46 ± 0.18 °C
mass density [2]: 803.66 ± 1 kg/m3
vapor or sublimation pressure ([2]; 338.15 K, Ebullio): 25.92 ± 2 kPa
vapor or sublimation pressure ([2]; 353.15 K, Ebullio): 51 ± 4 kPa
vapor or sublimation pressure ([2]; 368.15 K, Ebullio): 93.92 ± 7.3 kPa
refractive index [3]: 1.38512 ± 0.00086

CC(C)O [propan-2-ol]
Boiling temperature at pressure P ([1]; 14.9 kPa): 41.28 ± 0.23 °C
Boiling temperature at pressure P ([1]; 23.43 kPa): 49.88 ± 0.22 °C
Boiling temperature at pressure P ([1]; 29.9 kPa): 54.82 ± 0.2 °C
Boiling temperature at pressure P ([1]; 39.89 kPa): 60.83 ± 0.2 °C
Boiling temperature at pressure P ([1]; 48.34 kPa): 64.99 ± 0.19 °C
Boiling temperature at pressure P ([1]; 59.89 kPa): 69.8 ± 0.19 °C
Boiling temperature at pressure P ([1]; 69.89 kPa): 73.30 ± 0.19 °C
Boiling temperature at pressure P ([1]; 79.88 kPa): 76.49 ± 0.19 °C
Boiling temperature at pressure P ([1]; 92.4 kPa): 79.99 ± 0.18 °C
Boiling temperature at pressure P ([1]; 98.88 kPa): 81.67 ± 0.18 °C
mass density [2]: 784.99 ± 1 kg/m3
vapor or sublimation pressure ([2]; 323.15 K): 23.48 ± 1.8 kPa
vapor or sublimation pressure ([2]; 338.15 K): 48.45 ± 3.8 kPa
vapor or sublimation pressure ([2]; 353.15 K): 92.48 ± 7.2 kPa
refractive index [3]: 1.37718 ± 0.00086
